{"source": "patent US20240300940A1", "about": "“Phenothiazinyl Compounds and Uses” (Prosetta Biosciences, Inc., priority 2023, published 2024)", "key": {"Sensitive strain": {"system": "Sensitive strain", "experiment": "Cross resistance test (MIC)", "conditions": "read-out: MIC, Sensitive strain"}, "Organ exposure in mice": {"experiment": "Organ exposure in mice", "conditions": "mice IV 3 mg/kg"}, "MRSA/S. aureus isolates": {"system": "MRSA/S. aureus isolates", "experiment": "MIC50 against isolates", "format": "cell-based", "conditions": "Staphylococcus aureus"}, "[1]": {"system": "different species of gram-positive bacteria", "experiment": "MIC assay, summary over gram-positive species", "conditions": "exception E. faecalis"}, "E. faecalis ATCC29212": {"system": "E. faecalis ATCC29212", "experiment": "MIC assay, serial dilution", "conditions": "Enterococcus faecalis"}, "S. pyogens ATCC49399": {"system": "S. pyogens ATCC49399", "experiment": "MIC assay, serial dilution", "conditions": "Streptococcus"}, "A. baumannii ATCC19606": {"system": "A. baumannii ATCC19606", "experiment": "MIC assay, serial dilution", "conditions": "Acinetobacter baumannii"}, "E. faecium ATCC27270": {"system": "E. faecium ATCC27270", "experiment": "MIC assay, serial dilution", "conditions": "Enterococcus faecium"}, "MRSA ATCC 43300": {"system": "MRSA ATCC 43300", "experiment": "Serum effect on antibacterial activity (MIC)", "format": "cell-based, S. aureus", "conditions": "Staphylococcus aureus"}}}
{"compound": "CC1(C)C2CN(c3ccc4nc5ccc(N6CC7C(C6)C7(C)C)cc5[s+]c4c3)CC21", "note": "(stereo not shown) [Compound 1, 3,7-Di(6,6-dimethyl-3-azabicyclo[3.1.0]hexan-N-yl)phenothiazinium iodide]", "values": [{"measurement": "MIC", "setting": "Sensitive strain", "result": 0.25, "unit": "µg/mL"}, {"measurement": "Organ exposure, concentration", "setting": "Organ exposure in mice; Brain, 0.5 hrs", "result": 81, "unit": "ng"}, {"measurement": "Organ exposure, concentration", "setting": "Organ exposure in mice; Brain, 2 hrs", "result": 56, "unit": "ng"}, {"measurement": "Organ exposure, concentration", "setting": "Organ exposure in mice; Brain, 24 hrs", "result": 30, "unit": "ng"}, {"measurement": "Organ exposure, concentration", "setting": "Organ exposure in mice; Heart, 0.5 hrs", "result": 1335, "unit": "ng"}, {"measurement": "Organ exposure, concentration", "setting": "Organ exposure in mice; Heart, 2 hrs", "result": 1951, "unit": "ng"}, {"measurement": "Organ exposure, concentration", "setting": "Organ exposure in mice; Heart, 24 hrs", "result": 821, "unit": "ng"}, {"measurement": "Organ exposure, concentration", "setting": "Organ exposure in mice; Kidney, 0.5 hrs", "result": 1817, "unit": "ng"}, {"measurement": "Organ exposure, concentration", "setting": "Organ exposure in mice; Kidney, 2 hrs", "result": 2179, "unit": "ng"}, {"measurement": "Organ exposure, concentration", "setting": "Organ exposure in mice; Kidney, 24 hrs", "result": 637, "unit": "ng"}, {"measurement": "Organ exposure, concentration", "setting": "Organ exposure in mice; Liver, 0.5 hrs", "result": 13897, "unit": "ng"}, {"measurement": "Organ exposure, concentration", "setting": "Organ exposure in mice; Liver, 2 hrs", "result": 11563, "unit": "ng"}, {"measurement": "Organ exposure, concentration", "setting": "Organ exposure in mice; Liver, 24 hrs", "result": 864, "unit": "ng"}, {"measurement": "Organ exposure, concentration", "setting": "Organ exposure in mice; Lungs, 0.5 hrs", "result": 13003, "unit": "ng"}, {"measurement": "Organ exposure, concentration", "setting": "Organ exposure in mice; Lungs, 2 hrs", "result": 4178, "unit": "ng"}, {"measurement": "Organ exposure, concentration", "setting": "Organ exposure in mice; Lungs, 24 hrs", "result": 661, "unit": "ng"}, {"measurement": "Organ exposure, concentration", "setting": "Organ exposure in mice; Muscle, 0.5 hrs", "result": 154.5, "unit": "ng"}, {"measurement": "Organ exposure, concentration", "setting": "Organ exposure in mice; Muscle, 2 hrs", "result": 324.5, "unit": "ng"}, {"measurement": "Organ exposure, concentration", "setting": "Organ exposure in mice; Muscle, 24 hrs", "result": 168.33, "unit": "ng"}, {"measurement": "MIC50", "setting": "MRSA/S. aureus isolates", "result": 0.125, "unit": "µg/mL"}, {"measurement": "MIC range", "setting": "[1]", "result": "0.25 to 0.5", "unit": "µg/mL"}, {"measurement": "MIC", "setting": "E. faecalis ATCC29212", "result": 2, "unit": "µg/mL"}, {"measurement": "MIC", "setting": "S. pyogens ATCC49399", "result": 0.25, "unit": "µg/mL"}, {"measurement": "MIC", "setting": "A. baumannii ATCC19606", "result": 2, "unit": "µg/mL"}, {"measurement": "MIC", "setting": "E. faecium ATCC27270", "result": 0.5, "unit": "µg/mL"}, {"measurement": "MIC", "setting": "MRSA ATCC 43300; MRSA ATCC 43300, 20% serum", "result": 1, "unit": "µg/mL"}, {"measurement": "MIC", "setting": "MRSA ATCC 43300; MRSA ATCC 43300, 40% serum", "result": 2, "unit": "µg/mL"}, {"measurement": "MIC", "setting": "MRSA ATCC 43300; MRSA ATCC 43300, No serum", "result": 0.25, "unit": "µg/mL"}]}
